# What was measured:
# Type in all cases: biochemical
# KRAS G12D = KRAS G12D (Homo sapiens (Human), UniProt P01116+P62937, G12D); experiment: Ras-Raf (BRAF RBD) disruption / FRET / MOA assay, KRAS G12D; conditions: Ras-Raf disruption/FRET/MOA assay; class symbols; read-out: KRAS G12D FRET data IC50
# In short: (§1)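 Compound-driven ternary complex of nucleotide-loaded Ras with cyclophilin A, disrupting BRAF RBD binding. 10-point 3-fold dilution from 30 μM final, 3 h at 25° C, then anti-His Eu-W1024 (10 nM) and anti-GST allophycocyanin (50 nM) for 1.5 h. IC50 from TR-FRET ratio decrease versus DMSO.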
# KRAS G13D = KRAS G13D (Homo sapiens (Human), UniProt P01116+P62937, G13D); experiment: Ras-Raf (BRAF RBD) disruption / FRET / MOA assay, KRAS G13D; conditions: read-out: IC50* KRAS G13D FRET data
# Chain of KRAS G13D (P01116-2 other isoform, or with tags, fused parts or gaps G13D): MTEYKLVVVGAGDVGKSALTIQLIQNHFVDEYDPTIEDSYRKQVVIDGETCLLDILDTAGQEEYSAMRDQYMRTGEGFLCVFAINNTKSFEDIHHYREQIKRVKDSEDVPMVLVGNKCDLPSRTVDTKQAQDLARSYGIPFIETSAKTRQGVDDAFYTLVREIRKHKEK
# Chain of KRAS G13D (P62937 whole entry): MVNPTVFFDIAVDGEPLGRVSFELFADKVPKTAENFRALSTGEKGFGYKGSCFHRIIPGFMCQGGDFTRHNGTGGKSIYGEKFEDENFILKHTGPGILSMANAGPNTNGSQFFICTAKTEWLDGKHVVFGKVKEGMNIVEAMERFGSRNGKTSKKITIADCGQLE
# In short: as §1
# KRAS G12S = KRAS G12S (Homo sapiens (Human), UniProt P01116+P62937, G12S); experiment: Ras-Raf (BRAF RBD) disruption / FRET / MOA assay, KRAS G12S; conditions: Ras-Raf disruption/FRET/MOA assay; class symbols; read-out: KRAS G12S FRET data IC50
# Chain of KRAS G12S (P01116-2 other isoform, or with tags, fused parts or gaps G12S): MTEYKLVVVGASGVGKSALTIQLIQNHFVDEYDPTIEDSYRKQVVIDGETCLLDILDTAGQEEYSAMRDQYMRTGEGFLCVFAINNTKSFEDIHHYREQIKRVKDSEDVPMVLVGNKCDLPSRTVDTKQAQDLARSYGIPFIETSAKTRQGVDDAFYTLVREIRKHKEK
# Chain of KRAS G12S (P62937 whole entry): as the sequence (P62937 whole entry) above
# In short: as §1
# KRAS Q61H = KRAS Q61H (Homo sapiens (Human), UniProt P01116+P62937, Q61H); experiment: Ras-Raf (BRAF RBD) disruption / FRET / MOA assay, KRAS Q61H; conditions: Ras-Raf disruption/FRET/MOA assay; class symbols; read-out: KRAS Q61H FRET data IC50
# Chain of KRAS Q61H (P01116-2 other isoform, or with tags, fused parts or gaps Q61H): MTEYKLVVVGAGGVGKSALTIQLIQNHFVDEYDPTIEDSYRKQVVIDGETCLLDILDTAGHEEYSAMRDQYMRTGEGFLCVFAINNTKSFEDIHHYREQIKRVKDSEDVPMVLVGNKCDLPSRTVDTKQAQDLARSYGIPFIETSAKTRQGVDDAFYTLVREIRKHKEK
# Chain of KRAS Q61H (P62937 whole entry): as the sequence (P62937 whole entry) above
# In short: (§2)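 Compounds (30 μM top final, 10-point 3-fold dilutions) incubated 3 h at 25° C with nucleotide-loaded Ras, cyclophilin A and BRAF RBD. Detection with 10 nM anti-His Eu-W1024 and 50 nM anti-GST allophycocyanin over another 1.5 h. Lowered TR-FRET ratio relative to DMSO wells gives IC50.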
# K-Ras G13C = K-Ras G13C (Homo sapiens (Human), UniProt P01116+P62937, G13C); experiment: Ras-Raf (BRAF RBD) disruption / FRET / MOA assay, KRAS G13C; conditions: KRAS G13C; Ras-Raf disruption/FRET/MOA assay; read-out: IC50* KRAS G13C FRET data
# Chain of K-Ras G13C (P01116-2 other isoform, or with tags, fused parts or gaps G13C): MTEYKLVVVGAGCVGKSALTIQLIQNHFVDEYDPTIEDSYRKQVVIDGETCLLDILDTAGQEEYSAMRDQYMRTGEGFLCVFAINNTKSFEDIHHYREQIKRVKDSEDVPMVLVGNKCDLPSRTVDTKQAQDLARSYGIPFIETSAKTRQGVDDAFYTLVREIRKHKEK
# Chain of K-Ras G13C (P62937 whole entry): as the sequence (P62937 whole entry) above
# In short: as §1
# NRAS Q61K = NRAS Q61K (Homo sapiens (Human), UniProt P01111+P62937, Q61K); experiment: Ras-Raf (BRAF RBD) disruption / FRET / MOA assay, NRAS Q61K; conditions: NRAS Q61K; Ras-Raf disruption/FRET/MOA assay; read-out: IC50* NRAS Q61K FRET data
# Chain of NRAS Q61K (P01111 whole entry Q61K): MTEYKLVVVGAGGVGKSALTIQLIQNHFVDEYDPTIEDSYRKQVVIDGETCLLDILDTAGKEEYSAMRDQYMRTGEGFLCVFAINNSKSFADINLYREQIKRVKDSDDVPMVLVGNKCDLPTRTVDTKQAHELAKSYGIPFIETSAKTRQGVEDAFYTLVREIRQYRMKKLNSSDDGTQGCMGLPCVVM
# Chain of NRAS Q61K (P62937 whole entry): as the sequence (P62937 whole entry) above
# In short: as §2
# KRAS WT = KRAS WT (Homo sapiens (Human), UniProt P01116+P62937); experiment: Ras-Raf (BRAF RBD) disruption / FRET / MOA assay, KRAS WT; conditions: read-out: IC50* KRAS WT FRET data
# Chain of KRAS WT (P01116-2 other isoform, or with tags, fused parts or gaps): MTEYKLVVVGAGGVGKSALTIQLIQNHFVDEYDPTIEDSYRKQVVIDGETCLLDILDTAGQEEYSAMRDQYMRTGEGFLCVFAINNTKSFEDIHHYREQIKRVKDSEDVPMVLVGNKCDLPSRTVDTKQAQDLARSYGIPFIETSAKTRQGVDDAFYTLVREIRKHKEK
# Chain of KRAS WT (P62937 whole entry): as the sequence (P62937 whole entry) above
# In short: as §1
# Chain of KRAS G12D (P01116-2 other isoform, or with tags, fused parts or gaps G12D): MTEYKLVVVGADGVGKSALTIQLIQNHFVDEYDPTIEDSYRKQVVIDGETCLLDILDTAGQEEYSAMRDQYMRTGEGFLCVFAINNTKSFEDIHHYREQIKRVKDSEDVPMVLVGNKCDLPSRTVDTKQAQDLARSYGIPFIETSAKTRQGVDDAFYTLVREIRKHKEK
# Chain of KRAS G12D (P62937 whole entry): as the sequence (P62937 whole entry) above
Compound,IC50 (KRAS G12D) [µM],IC50 (KRAS G13D) [µM],IC50 (KRAS G12S) [µM],IC50 (KRAS Q61H) [µM],IC50 (K-Ras G13C) [µM],IC50 (NRAS Q61K) [µM],IC50 (KRAS WT) [µM]
"C=CC(=O)Nc1ccc(C(=O)N(C)[C@H](C(=O)N[C@H]2Cc3cc(O)cc(c3)-c3ccc4c(c3)c(c(-c3cccnc3[C@H](C)OC)n4CC)CC(C)(C)COC(=O)[C@@H]3CCCN(N3)C2=O)C(C)C)nc1 (atropisomer, axis not shown) [Example A252]",1 to 10,0.1 to 1,0.1 to 1,0.1 to 1,< 0.01,1 to 10,0.1 to 1
"C=CC(=O)N1CCN(C(=O)N(C)[C@H](C(=O)N[C@H]2Cc3cc(O)cc(c3)-c3ccc4c(c3)c(c(-c3cccnc3[C@H](C)OC)n4CC)CC(C)(C)COC(=O)[C@@H]3CCCN(N3)C2=O)C(C)C)CC1 (atropisomer, axis not shown) [Example A262]",0.1 to 1,0.01 to 0.1,0.01 to 0.1,0.01 to 0.1,< 0.01,0.01 to 0.1,0.01 to 0.1
"C=CS(=O)(=O)N1CC2(CCN([C@H](C(=O)N[C@H]3Cc4cc(O)cc(c4)-c4ccc5c(c4)c(c(-c4cccnc4[C@H](C)OC)n5CC)CC(C)(C)COC(=O)[C@@H]4CCCN(N4)C3=O)C(C)C)C2=O)C1 (atropisomer, axis not shown) [Example A297]",1 to 10,0.1 to 1,0.1 to 1,< 0.01,< 0.01,0.01 to 0.1,0.01 to 0.1
"C=CC(=O)N1CC[C@H](C(=O)N(C)[C@H](C(=O)N[C@H]2Cc3cccc(c3)-c3ccc4c(c3)c(c(-c3cccnc3[C@H](C)OC)n4CC(F)(F)F)CC(C)(C)COC(=O)[C@@H]3CCCN(N3)C2=O)C(C)C)C1 (atropisomer, axis not shown) [Example A332]",1 to 10,1 to 10,1 to 10,0.1 to 1,0.1 to 1,1 to 10,1 to 10
"C=CC(=O)N1CC[C@H](C(=O)N(C)[C@H](C(=O)N[C@H]2Cc3cc(F)cc(c3)-c3ccc4c(c3)c(c(-c3cccnc3[C@H](C)OC)n4CC)CC(C)(C)COC(=O)[C@@H]3CCCN(N3)C2=O)C(C)C)C1 (atropisomer, axis not shown) [Example A342]",1 to 10,1 to 10,1 to 10,0.1 to 1,0.1 to 1,1 to 10,1 to 10
"CCn1c(-c2cccnc2[C@H](C)OC)c2c3cc(ccc31)-c1cccc(c1)C[C@H](NC(=O)[C@@H](COC1CN(C(=O)C#CC(C)(C)N3CCC3)C1)C(C)C)C(=O)N1CCC[C@H](N1)C(=O)OCC(C)(C)C2 (atropisomer, axis not shown) [Example A346]",> 10,> 10,> 10,1 to 10,1 to 10,> 10,> 10
"CO[C@@H](C)c1ncccc1-c1c2c3cc(ccc3n1CC(F)(F)F)-c1cc(F)cc(c1)C[C@H](NC(=O)[C@@H](COC1CN(C(=O)C#CC(C)(C)N(C)C)C1)C(C)C)C(=O)N1CCC[C@H](N1)C(=O)OCC(C)(C)C2 (atropisomer, axis not shown) [Example A348]",> 10,> 10,1 to 10,1 to 10,1 to 10,> 10,1 to 10
"CCn1c(-c2cccnc2[C@H](C)OC)c2c3cc(ccc31)-c1cccc(c1)C[C@H](NC(=O)[C@H](C(C)C)N1CO[C@]3(CCN(C(=O)C#CC(C)(C)N4CCC4)C3)C1=O)C(=O)N1CCC[C@H](N1)C(=O)OCC(C)(C)C2 (atropisomer, axis not shown) [Example A351]",1 to 10,1 to 10,0.1 to 1,0.1 to 1,0.1 to 1,1 to 10,0.1 to 1
"C=CC(=O)N1CC[C@@]2(CCN(C(=O)N(C)[C@H](C(=O)N[C@H]3Cc4nc(cs4)-c4ccc5c(c4)c(c(-c4cccnc4[C@H](C)OC)n5CC)CC(C)(C)COC(=O)[C@@H]4CCCN(N4)C3=O)C(C)C)C2)C1 (atropisomer, axis not shown) [Example A367]",0.1 to 1,0.1 to 1,0.01 to 0.1,0.01 to 0.1,0.1 to 1,0.01 to 0.1,0.01 to 0.1
"C=CC(=O)N(C)CC1CN(C(=O)N(C)[C@H](C(=O)N[C@H]2Cc3nc(cs3)-c3ccc4c(c3)c(c(-c3cccnc3[C@H](C)OC)n4CC)CC(C)(C)COC(=O)[C@@H]3CCCN(N3)C2=O)C(C)C)C1 (atropisomer, axis not shown) [Example A368]",0.1 to 1,0.1 to 1,0.1 to 1,0.01 to 0.1,0.1 to 1,0.01 to 0.1,0.1 to 1
"C=CC(=O)N1CC[C@]2(C1)OCN([C@H](C(=O)N[C@H]1Cc3cccc(c3)-c3ccc4c(c3)c(c(-c3cccnc3[C@H](C)OC)n4CC)CC(C)(C)COC(=O)[C@@H]3CCCN(N3)C1=O)C(C)C)C2=O (atropisomer, axis not shown) [Example A371]",> 10,> 10,1 to 10,1 to 10,0.1 to 1,> 10,1 to 10
"CO[C@@H](C)c1ncccc1-c1c2c3cc(ccc3n1CC(F)(F)F)N1CCO[C@@H](C[C@H](NC(=O)[C@@H](COC3CN(C(=O)C#CC(C)(C)N(C)C)C3)C(C)C)C(=O)N3CCC[C@H](N3)C(=O)OCC(C)(C)C2)C1 (atropisomer, axis not shown) [Example A375, (2R)-2-(((1-(4-(dimethylamino)-4-methylpent-2-ynoyl)azetidin-3-yl)oxy)methyl)-N-((2^2S,6^3S,4S)-1^2-(2-((S)-1-methoxyethyl)pyridin-3-yl)-10,10-dimethyl-5,7-dioxo-1^1-(2,2,2-trifluoroethyl)-6^1,6^2,6^3,6^4,6^5,6^6-hexahydro-1^1H-8-oxa-2(4,2)-morpholina-1(5,3)-indola-6(1,3)-pyridazinacycloundecaphane-4-yl)-3-methylbutanamide]",> 10,> 10,> 10,> 10,1 to 10,> 10,1 to 10
"C=CC(=O)N(C)[C@@H]1CCCN(C(=O)N(C)[C@H](C(=O)N[C@H]2Cc3nc(cs3)-c3ccc4c(c3)c(c(-c3cccnc3[C@H](C)OC)n4CC)CC(C)(C)COC(=O)[C@@H]3CCCN(N3)C2=O)C(C)C)C1 (atropisomer, axis not shown) [Example A382]",0.1 to 1,0.1 to 1,0.01 to 0.1,0.01 to 0.1,0.1 to 1,0.01 to 0.1,0.01 to 0.1
"C=CC(=O)N(C)C1CCN(C(=O)N(C)[C@H](C(=O)N[C@H]2Cc3nc(cs3)-c3ccc4c(c3)c(c(-c3cccnc3[C@H](C)OC)n4CC)CC(C)(C)COC(=O)[C@@H]3CCCN(N3)C2=O)C(C)C)CC1 (atropisomer, axis not shown) [Example A383]",0.1 to 1,0.1 to 1,0.01 to 0.1,0.01 to 0.1,0.01 to 0.1,0.01 to 0.1,0.01 to 0.1
"C=CC(=O)N1C[C@@H](C)N(C(=O)N(C)[C@H](C(=O)N[C@H]2Cc3nc(cs3)-c3ccc4c(c3)c(c(-c3cccnc3[C@H](C)OC)n4CC)CC(C)(C)COC(=O)[C@@H]3CCCN(N3)C2=O)C(C)C)[C@H](C)C1 (atropisomer, axis not shown) [Example A388]",0.01 to 0.1,0.01 to 0.1,0.01 to 0.1,< 0.01,0.01 to 0.1,< 0.01,< 0.01
"C=CC(=O)N1C[C@@H]2CN(C(=O)N(C)[C@H](C(=O)N[C@H]3Cc4nc(cs4)-c4ccc5c(c4)c(c(-c4cccnc4[C@H](C)OC)n5CC)CC(C)(C)COC(=O)[C@@H]4CCCN(N4)C3=O)C(C)C)C[C@@H]2C1 (atropisomer, axis not shown) [Example A389]",0.1 to 1,0.1 to 1,0.01 to 0.1,0.01 to 0.1,0.01 to 0.1,0.01 to 0.1,0.01 to 0.1
"C=CC(=O)N(C)[C@@H]1CCN(C(=O)N(C)[C@H](C(=O)N[C@H]2Cc3nc(cs3)-c3ccc4c(c3)c(c(-c3cccnc3[C@H](C)OC)n4CC)CC(C)(C)COC(=O)[C@@H]3CCCN(N3)C2=O)C(C)C)C1 (atropisomer, axis not shown) [Example A416]",1 to 10,0.1 to 1,0.1 to 1,0.01 to 0.1,0.1 to 1,0.01 to 0.1,0.1 to 1

# — US11566007B2, “Ras inhibitors” (Revolution Medicines, Inc., priority 2019, dated 2023)
